# Source: the supplement of paper PMC10307832
# Tests used:
# Assay in all cases: relative viability (nuclei count vs DMSO), 5 days (fraction); higher = more cells survive
# [1] = system: BEN
# Method in brief: (§1)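 Relative viability is defined as nuclei in treated wells over nuclei in vehicle wells. Duplicate plates were run and medians reported. Lung cancer cell lines in 1536-well plates were dosed by pin tool one day after seeding, with one drug or with a fixed anchor-drug dose plus five library-drug doses (not always all listed) in √10 steps, and nuclei were counted after 5 days.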
# [2] = system: ChaGo-K-1
# Method in brief: as §1
# [3] = system: HCC-15
# Method in brief: as §1
# [4] = system: HCC-78
# Method in brief: as §1
# [5] = system: LC-2-ad
# Method in brief: as §1
# [6] = system: LCLC-97TM1
# Method in brief: as §1
# [7] = system: LK-2
# Method in brief: as §1
# [8] = system: LU99A
# Method in brief: as §1
# [9] = system: LXF-289
# Method in brief: as §1
# [10] = system: NCI-H1651
# Method in brief: as §1
# [11] = system: NCI-H1666
# Method in brief: as §1
# [12] = system: NCI-H1944
# Method in brief: as §1
# [13] = system: NCI-H2087
# Method in brief: as §1
# [14] = system: NCI-H322M
# Method in brief: as §1
# [15] = system: NCI-H358
# Method in brief: as §1
# [16] = system: NCI-H596
# Method in brief: as §1
# [17] = system: NCI-H650
# Method in brief: as §1
# [18] = system: NCI-H661
# Method in brief: as §1
# [19] = system: NCI-H838
# Method in brief: as §1
# [20] = system: PC-3 [JPC-3]
# Method in brief: as §1
# [21] = system: SK-MES-1
# Method in brief: as §1
# [22] = system: UMC-11
# Method in brief: as §1
smiles,measurement,setting,value
CC1(C)CCC(c2ccc(Cl)cc2)=C(CN2CCN(c3ccc(C(=O)NS(=O)(=O)c4ccc(N[C@H](CCN5CCOCC5)CSc5ccccc5)c(S(=O)(=O)C(F)(F)F)c4)cc3)CC2)C1 [Navitoclax] + C[C@@H](Oc1cc(-c2cnn(C3CCNCC3)c2)cnc1N)c1c(Cl)ccc(F)c1Cl [Crizotinib] (partner 1 µM),relative viability,[1]; first compound 0.005 µM,0.878
same,relative viability,[1]; first compound 0.01581 µM,0.897
same,relative viability,[1]; first compound 0.05 µM,0.936
same,relative viability,[1]; first compound 0.1581 µM,0.944
same,relative viability,[1]; first compound 0.5 µM,0.662
same,relative viability,[2]; first compound 0.005 µM,1.1
same,relative viability,[2]; first compound 0.01581 µM,1.11
same,relative viability,[2]; first compound 0.05 µM,0.601
same,relative viability,[2]; first compound 0.1581 µM,1.1
same,relative viability,[2]; first compound 0.5 µM,1.19
same,relative viability,[3]; first compound 0.005 µM,0.802
same,relative viability,[3]; first compound 0.01581 µM,0.848
same,relative viability,[3]; first compound 0.05 µM,0.883
same,relative viability,[3]; first compound 0.1581 µM,0.822
same,relative viability,[3]; first compound 0.5 µM,0.786
same,relative viability,[4]; first compound 0.005 µM,0.368
same,relative viability,[4]; first compound 0.01581 µM,0.376
same,relative viability,[4]; first compound 0.1581 µM,0.345
same,relative viability,[4]; first compound 0.5 µM,0.322
same,relative viability,[5]; first compound 0.005 µM,0.422
same,relative viability,[5]; first compound 0.01581 µM,0.489
same,relative viability,[5]; first compound 0.05 µM,0.538
same,relative viability,[5]; first compound 0.1581 µM,0.429
same,relative viability,[5]; first compound 0.5 µM,0.575
same,relative viability,[6]; first compound 0.005 µM,0.358
same,relative viability,[6]; first compound 0.01581 µM,0.337
same,relative viability,[6]; first compound 0.05 µM,0.294
same,relative viability,[6]; first compound 0.1581 µM,0.333
same,relative viability,[6]; first compound 0.5 µM,0.381
same,relative viability,[7]; first compound 0.005 µM,0.226
same,relative viability,[7]; first compound 0.01581 µM,0.21
same,relative viability,[7]; first compound 0.05 µM,0.246
same,relative viability,[7]; first compound 0.1581 µM,0.191
same,relative viability,[7]; first compound 0.5 µM,0.263
same,relative viability,[8]; first compound 0.005 µM,0.549
same,relative viability,[8]; first compound 0.01581 µM,0.691
same,relative viability,[8]; first compound 0.05 µM,0.39
same,relative viability,[8]; first compound 0.1581 µM,0.588
same,relative viability,[8]; first compound 0.5 µM,0.638
same,relative viability,[9]; first compound 0.005 µM,0.736
same,relative viability,[9]; first compound 0.01581 µM,0.836
same,relative viability,[9]; first compound 0.05 µM,0.787
same,relative viability,[9]; first compound 0.1581 µM,0.797
same,relative viability,[9]; first compound 0.5 µM,0.794
same,relative viability,[10]; first compound 0.005 µM,0.877
same,relative viability,[10]; first compound 0.01581 µM,0.939
same,relative viability,[10]; first compound 0.05 µM,0.78
same,relative viability,[10]; first compound 0.1581 µM,0.821
same,relative viability,[10]; first compound 0.5 µM,0.839
same,relative viability,[11]; first compound 0.005 µM,0.991
same,relative viability,[11]; first compound 0.01581 µM,1.08
same,relative viability,[11]; first compound 0.05 µM,1.03
same,relative viability,[11]; first compound 0.1581 µM,0.879
same,relative viability,[11]; first compound 0.5 µM,0.975
same,relative viability,[12]; first compound 0.005 µM,1.05
same,relative viability,[12]; first compound 0.01581 µM,1.13
same,relative viability,[12]; first compound 0.05 µM,0.798
same,relative viability,[12]; first compound 0.1581 µM,1.14
same,relative viability,[12]; first compound 0.5 µM,1.03
same,relative viability,[13]; first compound 0.005 µM,0.911
same,relative viability,[13]; first compound 0.01581 µM,0.766
same,relative viability,[13]; first compound 0.05 µM,0.873
same,relative viability,[13]; first compound 0.1581 µM,0.892
same,relative viability,[13]; first compound 0.5 µM,0.976
same,relative viability,[14]; first compound 0.005 µM,0.885
same,relative viability,[14]; first compound 0.01581 µM,0.954
same,relative viability,[14]; first compound 0.05 µM,0.839
same,relative viability,[14]; first compound 0.1581 µM,0.858
same,relative viability,[14]; first compound 0.5 µM,0.92
same,relative viability,[15]; first compound 0.005 µM,0.567
same,relative viability,[15]; first compound 0.01581 µM,0.595
same,relative viability,[15]; first compound 0.05 µM,0.634
same,relative viability,[15]; first compound 0.1581 µM,0.506
same,relative viability,[15]; first compound 0.5 µM,0.743
same,relative viability,[16]; first compound 0.005 µM,1.02
same,relative viability,[16]; first compound 0.01581 µM,0.985
same,relative viability,[16]; first compound 0.05 µM,0.802
same,relative viability,[16]; first compound 0.1581 µM,1.02
same,relative viability,[16]; first compound 0.5 µM,1.01
same,relative viability,[17]; first compound 0.005 µM,0.636
same,relative viability,[17]; first compound 0.01581 µM,0.699
same,relative viability,[17]; first compound 0.05 µM,0.814
same,relative viability,[17]; first compound 0.1581 µM,0.707
same,relative viability,[17]; first compound 0.5 µM,0.805
same,relative viability,[18]; first compound 0.005 µM,1.12
same,relative viability,[18]; first compound 0.01581 µM,0.964
same,relative viability,[18]; first compound 0.05 µM,0.947
same,relative viability,[18]; first compound 0.1581 µM,0.951
same,relative viability,[18]; first compound 0.5 µM,1
same,relative viability,[19]; first compound 0.005 µM,0.794
same,relative viability,[19]; first compound 0.01581 µM,0.885
same,relative viability,[19]; first compound 0.05 µM,1.01
same,relative viability,[19]; first compound 0.1581 µM,0.802
same,relative viability,[19]; first compound 0.5 µM,0.817
same,relative viability,[20]; first compound 0.005 µM,1.01
same,relative viability,[20]; first compound 0.01581 µM,0.986
same,relative viability,[20]; first compound 0.05 µM,0.927
same,relative viability,[20]; first compound 0.1581 µM,0.991
same,relative viability,[20]; first compound 0.5 µM,0.963
same,relative viability,[21]; first compound 0.005 µM,0.953
same,relative viability,[21]; first compound 0.01581 µM,1.07
same,relative viability,[21]; first compound 0.05 µM,1.08
same,relative viability,[21]; first compound 0.1581 µM,0.953
same,relative viability,[21]; first compound 0.5 µM,0.978
same,relative viability,[22]; first compound 0.005 µM,0.646
same,relative viability,[22]; first compound 0.01581 µM,0.583
same,relative viability,[22]; first compound 0.1581 µM,0.636
same,relative viability,[22]; first compound 0.5 µM,0.401
